The test has as its target T1, human ANO6 (Homo sapiens, UniProt Q4KMQ2).
T1 construct: expressed in transfected cells
T1 sequence (Q4KMQ2 1-931 isoform Q4KMQ2-2): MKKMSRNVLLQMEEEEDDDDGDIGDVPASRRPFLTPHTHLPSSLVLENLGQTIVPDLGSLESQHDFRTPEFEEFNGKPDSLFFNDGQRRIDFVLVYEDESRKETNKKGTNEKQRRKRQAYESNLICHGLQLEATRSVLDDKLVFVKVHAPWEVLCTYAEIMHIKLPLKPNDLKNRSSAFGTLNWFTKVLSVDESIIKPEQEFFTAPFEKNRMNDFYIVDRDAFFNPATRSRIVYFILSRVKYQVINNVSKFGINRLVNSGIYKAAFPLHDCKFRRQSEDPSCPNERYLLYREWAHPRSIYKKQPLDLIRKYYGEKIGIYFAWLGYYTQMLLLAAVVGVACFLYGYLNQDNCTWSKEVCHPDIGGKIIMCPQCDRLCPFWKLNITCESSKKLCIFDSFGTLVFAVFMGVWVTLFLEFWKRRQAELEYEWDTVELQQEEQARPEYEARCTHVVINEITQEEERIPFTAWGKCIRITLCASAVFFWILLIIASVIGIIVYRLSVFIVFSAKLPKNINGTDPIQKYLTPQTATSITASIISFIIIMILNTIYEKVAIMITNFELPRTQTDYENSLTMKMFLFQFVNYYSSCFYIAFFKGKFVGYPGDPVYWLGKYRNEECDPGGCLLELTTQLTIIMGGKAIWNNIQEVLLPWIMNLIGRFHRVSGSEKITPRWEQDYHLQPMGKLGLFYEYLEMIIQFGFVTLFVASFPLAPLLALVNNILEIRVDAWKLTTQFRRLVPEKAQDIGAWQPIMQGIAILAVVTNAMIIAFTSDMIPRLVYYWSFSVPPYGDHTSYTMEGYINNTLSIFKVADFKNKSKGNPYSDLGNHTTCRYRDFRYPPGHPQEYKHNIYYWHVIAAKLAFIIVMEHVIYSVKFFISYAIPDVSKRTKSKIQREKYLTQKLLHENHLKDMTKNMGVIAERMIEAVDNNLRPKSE
Briefly: LACT C2 assay (phosphatidylserine scramblase function assay). Type of test: cell-based. To be noted: FRT cells expressing human ANO6, 10 μM ionomycin; for inhibition at 0.1 µM: test compound 100 nM, read-out: Inhibition Level 100 nM; for inhibition at 1 µM: test compound 1 μM, read-out: Inhibition Level 1 μM. From the text: Phosphatidylserine Scramblase Function Assay
1. Materials and Instruments
Ionomycin (Alomonelab, cat. #I-700), DAPI (Sigma-Aldrich, cat. #D8417), paraformaldehyde (Biosesang, cat. #P2031), Lionheart FX Automated Microscope (BioTek, Winooski), Python3 (Python Software Foundation), and OpenCV (Open Source Computer Vision Library).
Fisher rat thyroid (FRT) cells stably expressing human ANO6 (GenBank accession no. NP_001191732.1, provided by J. H. Nam, Dongguk University College of Medicine, Korea) were grown in DMEM/Ham's F-12 (1:1) medium with 10% FBS, 2 mM L-549 glutamine, 100 units/mL penicillin, and 100 μg/mL streptomycin at 37° C. and 5% CO2.
FRT cells stably expressing human ANO6 were plated in 96 well black-walled microplates at a density of 2×10^4 cells/well. After 24 hours incubation, cells were treated with the test compound (dissolved in DMSO) were treated to each well to become 1% v/v DMSO for 10 minutes, then 10 μM of ionomycin was applied. Finally each well was washed with 200 μL PBS after 10 minutes. After washout, the phosphatidylserine and nuclei were stained with PBS containing 500 nM Lactadherin-C2 (Lact-C2)-GFP, then cells were washed with 200 μL PBS. Cells were fixed with 4% paraformaldehyde for 5 minutes at room temperature. For morphological analysis, some cells were stained with fluorescently labelled DAPI for 15 minutes at room temperature. Quantitative analysis of the fluorescence intensity of Lact-C2-GFP was performed with Python3 and OpenCV. OpenCV was used to remove background and noise pixels, and the sum of all remaining pixel values was used to evaluate the fluorescence intensity of Lact-C2-GFP.
The inhibitory activity (%) of each of the test compounds was obtained by the following steps. In each row of 96 well plate, the inhibitory activity of each of the test compounds was calculated as percentages. The inhibitory activity of a negative control group to which neither compounds nor ionomycin were treated was set to be 100%, and the inhibitory activity of a positive control group to which ionomycin was treated and compounds were not treated was set to be 0%. The assay was performed in triplicate, and the results were averaged.

Consider `O=C(N[C@@H]1C[C@H]1c1ccccc1)c1ccnc(Nc2ncc(-c3ccccc3)cn2)c1` [Compound 178, N-((1R,2S)-2-phenylcyclopropyl)-2-((5-phenylpyrimidin-2-yl)amino)isonicotinamide], for which the inhibition at 0.1 µM is 30 to 60%.

Take `O=C(Nc1cccc([N+](=O)[O-])c1)c1cccc(Nc2ncc(-c3cccc(F)c3)cn2)c1` [Compound 137, 3-((5-(3-fluorophenyl)pyrimidin-2-yl)amino)-N-(3-nitrophenyl)benzamide]: the inhibition at 0.1 µM is less than 30% and the inhibition at 1 µM is not below 60%.

For `O=C(N[C@@H]1C[C@H]1c1ccccc1)c1ccnc(Nc2ccc(-c3ccccc3)cn2)c1` [Compound 149, N-((1R,2S)-2-phenylcyclopropyl)-2-((5-phenylpyridin-2-yl)amino)isonicotinamide], the inhibition at 0.1 µM was less than 30% and the inhibition at 1 µM was not below 60%.

Turning to `O=C(NC1(c2ccccc2)CC1)c1cccc(Nc2ccc(-c3cccc(F)c3)cn2)c1` [Compound 134, 3-((5-(3-fluorophenyl)pyridin-2-yl)amino)-N-(1-phenylcyclopropyl)benzamide], the inhibition at 0.1 µM is less than 30% and the inhibition at 1 µM is 30 to 60%.

For the molecule `N#CC1(NC(=O)c2cccc(Nc3ncc(-c4cccc(F)c4)cn3)c2)CC1` [Compound 218, N-(1-cyanocyclopropyl)-3-((5-(3-fluorophenyl)pyrimidin-2-yl)amino)benzamide], the inhibition at 0.1 µM was less than 30% and the inhibition at 1 µM fell in the range of 30 to 60%.

Turning to `Nc1ccc(NC(=O)c2cccc(Nc3ccc(-c4cccc(F)c4)cn3)c2)cc1` [Compound 146, N-(4-aminophenyl)-3-((5-(3-fluorophenyl)pyridin-2-yl)amino)benzamide], the inhibition at 0.1 µM is less than 30% and the inhibition at 1 µM lay within 30 to 60%.

`Cc1ccc(CCNC(=O)c2cccc(Nc3ncc(-c4cccc(F)c4)cn3)c2)o1` [Compound 151, 3-((5-(3-fluorophenyl)pyrimidin-2-yl)amino)-N-(2-(5-methylfuran-2-yl)ethyl)benzamide]: the inhibition at 0.1 µM was less than 30% and the inhibition at 1 µM is less than 30%.

As to `Cc1cc(CNC(=O)c2cccc(Nc3ccc(-c4ccccc4)nn3)c2)ccc1F` [Compound 231, N-(4-fluoro-3-methylbenzyl)-3-((6-phenylpyridazin-3-yl)amino)benzamide], the inhibition at 0.1 µM is less than 30% and the inhibition at 1 µM is less than 30%.

Turning to `O=C(NCc1ccc(Cl)cc1)c1cccc(Nc2ncc(-c3cccc(F)c3)cn2)c1` [Compound A101], the inhibition at 0.1 µM is less than 30% and the inhibition at 1 µM was 30 to 60%.

For the molecule `O=C(Nc1cccc(F)c1)c1cccc(Nc2nnc(-c3ccccc3)o2)c1` [Compound 158, N-(3-fluorophenyl)-3-((5-phenyl-1,3,4-oxadiazol-2-yl)amino)benzamide], the inhibition at 0.1 µM is less than 30% and the inhibition at 1 µM was less than 30%.

For the molecule `O=C(Nc1nccs1)c1cccc(Nc2ncc(-c3cccc(F)c3)cn2)c1` [Compound 138, 3-((5-(3-fluorophenyl)pyrimidin-2-yl)amino)-N-(thiazol-2-yl)benzamide], the inhibition at 0.1 µM is less than 30% and the inhibition at 1 µM was not below 60%.

Turning to `O=C(NCc1ccc(F)c(Cl)c1)c1cccc(Nc2ccc(-c3ccccc3)nn2)c1` [Compound 211, N-(3-chloro-4-fluorobenzyl)-3-((6-phenylpyridazin-3-yl)amino)benzamide], the inhibition at 0.1 µM was less than 30% and the inhibition at 1 µM is not below 60%.

Take `CN(c1cccc(C(=O)N[C@@H]2C[C@H]2c2ccccc2)c1)c1ncc(-c2cccc(F)c2)cn1` [Compound 180, 3-((5-(3-fluorophenyl)pyrimidin-2-yl)(methyl)amino)-N-((1R,2S)-2-phenylcyclopropyl)benzamide]: the inhibition at 0.1 µM was less than 30%.

On to `O=C(N[C@@H]1C[C@H]1c1ccccc1)c1cccc(Nc2ncc(-c3ccoc3)cn2)c1` [Compound 157, 3-((5-(furan-3-yl)pyrimidin-2-yl)amino)-N-((1R,2S)-2-phenylcyclopropyl)benzamide], for which the inhibition at 0.1 µM lay within 30 to 60% and the inhibition at 1 µM was not below 60%.

In the case of `O=C(N[C@@H]1C[C@H]1c1ccc(Cl)c(F)c1)c1cccc(Nc2ccc(-c3ccccc3)nn2)c1` [Compound 221, N-((1R,2S)-2-(4-chloro-3-fluorophenyl)cyclopropyl)-3-((6-phenylpyridazin-3-yl)amino)benzamide], the inhibition at 0.1 µM fell in the range of 30 to 60% and the inhibition at 1 µM was not below 60%.

Consider `O=C(N[C@@H]1C[C@H]1c1ccccc1)c1cncc(Nc2ncc(-c3ccccc3)cn2)c1` [Compound 156, N-((1R,2S)-2-phenylcyclopropyl)-5-((5-phenylpyrimidin-2-yl)amino)nicotinamide], for which the inhibition at 0.1 µM was less than 30% and the inhibition at 1 µM lay within 30 to 60%.

As for `CC(C)(NC(=O)c1cccc(Nc2ccc(-c3ccccc3)nn2)c1)c1ccc(F)cc1` [Compound 213, N-(2-(4-fluorophenyl)propan-2-yl)-3-((6-phenylpyridazin-3-yl)amino)benzamide], the inhibition at 0.1 µM was less than 30% and the inhibition at 1 µM lay within 30 to 60%.

For `O=C(Nc1cccc(F)c1)c1cccc(NC2CCC(c3ccccc3)CC2)c1` (single isomer, unassigned) [Compound 188, N-(3-fluorophenyl)-3-((4-phenylcyclohexyl)amino)benzamide], the inhibition at 0.1 µM is less than 30%.

For the molecule `O=C(NCc1ccc(F)cc1Br)c1cccc(Nc2ccc(-c3ccccc3)nn2)c1` [Compound 200, N-(2-bromo-4-fluorobenzyl)-3-((6-phenylpyridazin-3-yl)amino)benzamide], the inhibition at 0.1 µM is less than 30% and the inhibition at 1 µM was not below 60%.

Take `O=C(NCc1ccc(F)cc1F)c1cccc(Nc2ncc(-c3cccc(F)c3)cn2)c1` [Compound 215, N-(2,4-difluorobenzyl)-3-((5-(3-fluorophenyl)pyrimidin-2-yl)amino)benzamide]: the inhibition at 0.1 µM is less than 30% and the inhibition at 1 µM was less than 30%.

Take `O=C(NC1(c2ccc(F)cc2)CC1)c1cccc(Nc2ccc(-c3ccccc3)nn2)c1` [Compound 196, N-(1-(4-fluorophenyl)cyclopropyl)-3-((6-phenylpyridazin-3-yl)amino)benzamide]: the inhibition at 0.1 µM was less than 30% and the inhibition at 1 µM lay within 30 to 60%.

Regarding `Cc1c(C2CC2NC(=O)c2cccc(Nc3ncc(-c4ccccc4)cn3)c2)cnn1C` (stereo not drawn) [Compound 152, N-(2-(1,5-dimethyl-1H-pyrazol-4-yl)cyclopropyl)-3-((5-phenylpyrimidin-2-yl)amino)benzamide], the inhibition at 0.1 µM was less than 30% and the inhibition at 1 µM was less than 30%.

With `N#CC(NC(=O)c1cccc(Nc2ccc(-c3ccccc3)nn2)c1)c1ccc(F)cc1` (stereo not drawn) [Compound 212, N-(cyano(4-fluorophenyl)methyl)-3-((6-phenylpyridazin-3-yl)amino)benzamide], the inhibition at 0.1 µM is less than 30% and the inhibition at 1 µM is less than 30%.

Consider `O=C(N[C@@H]1C[C@H]1c1ccccc1)c1cccc(Nc2nnc(-c3ccccc3)o2)c1` [Compound 159, 3-((5-phenyl-1,3,4-oxadiazol-2-yl)amino)-N-((1R,2S)-2-phenylcyclopropyl)benzamide], for which the inhibition at 0.1 µM is less than 30% and the inhibition at 1 µM is 30 to 60%.

The values above are taken from US20230080054A1 (ILDONG PHARMACEUTICAL CO., LTD., priority 2021, published 2023).
